Measured values published in patent US10966968B2 (Amarin Pharmaceuticals Ireland Limited, priority 2013, dated 2021).
Values belong to the compound of their own block, whether it stands above or below them.

Legend:
[1] = independent of dose; cited from earlier work
[2] = Phase 1 open-label crossover drug-drug interaction study: rosiglitazone plasma pharmacokinetics without and with ethyl eicosapentaenoate
Experimental: Eligibility assessments and clinical laboratory testing were performed within a 28-day screening period. All eligible subjects received the same treatment. […] On days 12-29, subjects received oral doses of 4 g icosapent ethyl (2 liquid-filled 1 g gelatin capsules) twice daily, with or following the morning and evening meals. All study drugs were taken with 240 mL water. Rosiglitazone was administered by study personnel at the research unit, and thus compliance calculations were not necessary. icosapent ethyl was either administered by study personnel during scheduled visits or self-administered by subjects while away from the study site. Compliance to icosapent ethyl (days 12-29) was evaluated by counting and reconciling unused capsules against subject diaries and was calculated as: (used capsules/total dosing days×4)×100.
Doses selected for study were based on established PK profiles of both agents.
Eligible subjects were healthy nonsmoking men and women between the ages of 19 and 55 years with a body mass index >18 and ≤35 kg/m^2 and in good health as determined by medical history and medical examination. Women who were pregnant, nursing, or planning a pregnancy were excluded; female subjects of childbearing potential were required to use an acceptable method of birth control. Subjects were prohibited from ingesting medications and supplements that contained EPA and/or docosahexaenoic acid (DHA), fish meals, foods fortified with EPA and/or DHA, lipid-medications and dietary supplements with known or potential lipid-altering effects including statins, niacin >200 mg/day, fibrates, ezetimibe, and bile acid sequestrants or medications or supplements that may influence the measurements of EPA concentrations in plasma until after the last PK sample collection.

[3] = Safety evaluation in the drug-drug interaction study (adverse events, laboratory, vital signs); assay type: in vivo, human; conditions: rosiglitazone 8 mg with ethyl eicosapentaenoate 4 g/day, healthy subjects
Source text: Safety evaluations consisted of monitoring adverse events (AEs), clinical laboratory measurements (chemistry, hematology, and urinalysis), vital signs (systolic and diastolic blood pressure, heart rate, respiratory rate and oral body temperature), and physical examination findings.

[4] = target: T1, CYP2C8 (Homo sapiens, UniProt P10632); test: Effect of ethyl eicosapentaenoate on metabolism/exposure of rosiglitazone (CYP2C8 substrate) in the drug-drug interaction study; assay type: in vivo; conditions: at steady state, 4 g/day, healthy subjects
T1 construct: from tissue; host or cells: living healthy human subjects (in vivo; endogenous enzyme)
T1 sequence (P10632 1-490): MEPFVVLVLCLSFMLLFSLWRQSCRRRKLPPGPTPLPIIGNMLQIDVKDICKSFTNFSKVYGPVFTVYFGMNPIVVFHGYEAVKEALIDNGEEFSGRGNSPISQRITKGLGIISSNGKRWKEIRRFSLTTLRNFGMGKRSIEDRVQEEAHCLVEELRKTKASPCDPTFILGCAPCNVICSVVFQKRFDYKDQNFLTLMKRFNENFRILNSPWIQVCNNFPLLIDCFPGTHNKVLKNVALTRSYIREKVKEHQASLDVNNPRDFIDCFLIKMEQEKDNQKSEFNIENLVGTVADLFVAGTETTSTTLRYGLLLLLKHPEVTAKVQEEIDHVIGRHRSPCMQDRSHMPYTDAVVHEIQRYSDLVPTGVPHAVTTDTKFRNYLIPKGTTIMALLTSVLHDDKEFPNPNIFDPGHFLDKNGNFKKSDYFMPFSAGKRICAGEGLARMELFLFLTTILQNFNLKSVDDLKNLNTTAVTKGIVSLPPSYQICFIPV
Source text: Nonparametric statistics included median and data range (minimum-maximum).

[5] = both, human, plasma, oral, 8 mg

Tmax ([2]; both, human, plasma, oral): 48 min
half-life ([2]; both, human, plasma, oral): 246 min
AUC(0-t) [2, 5]: 3150 ng·h/mL
Tmax [2, 5]: 48 min
half-life [2, 5]: 264 min
Cmax ([2]; both, human, plasma, oral, 8 mg, Cmax, rosiglitazone 8 mg alone, mean (SD)): 672 ng/mL
AUC(0-inf) ([2]; both, human, plasma, oral, 8 mg, LSGM AUC0-inf, rosiglitazone alone, least squares geometric mean from mixed models): 3150 ng·h/mL
Cmax ([2]; both, human, plasma, oral, 8 mg, LSGM Cmax, rosiglitazone alone, least squares geometric mean from mixed models): 647 ng/mL
AUC(0-inf) ([2]; both, human, plasma, oral, AUC0-inf, rosiglitazone 8 mg with EPA 4 g (day 29), healthy subjects, plasma, mean (SD)): 2920 ng·h/mL
Cmax ([2]; both, human, plasma, oral, Cmax, rosiglitazone 8 mg with EPA 4 g, mean (SD)): 673 ng/mL
AUC(0-inf) ([2]; both, human, plasma, oral, LSGM AUC0-inf, rosiglitazone + EPA, least squares geometric mean from mixed models): 2840 ng·h/mL
Cmax ([2]; both, human, plasma, oral, LSGM Cmax, rosiglitazone + EPA, least squares geometric mean from mixed models): 650 ng/mL
AUC(0-inf) ([2]; both, human, plasma, po, 8 mg, AUC0-inf, rosiglitazone 8 mg single oral dose alone (day 11), healthy subjects, plasma, mean (SD)): 3230 ng·h/mL
Kel ([2]; rosiglitazone 8 mg alone, mean (SD)): 0.16 (0.02) 1/h
Kel ([2]; rosiglitazone 8 mg with EPA 4 g, mean (SD)): 0.17 (0.03) 1/h
difference in AUC0-inf and Cmax, alone compared to co-administration with ethyl eicosapentaenoate ([2]; rosiglitazone 8 mg, ethyl eicosapentaenoate 4 g/day): no significant difference
SMILES: CN(CCOc1ccc(CC2SC(=O)NC2=O)cc1)c1ccccn1 (centres unmarked) [Rosiglitazone, rosiglitazone]
elimination half-life [1]: 3 to 4 h
safety and tolerability of concomitant administration [3]: safe and well-tolerated
serious adverse events [3]: No serious adverse events

exposure changes of rosiglitazone when administered concomitantly [4]: no clinically relevant exposure changes
inhibition of the metabolism of rosiglitazone [4]: does not inhibit
SMILES: CC/C=C\C/C=C\C/C=C\C/C=C\C/C=C\CCCC(=O)OCC [ethyl eicosapentaenoate, all-cis eicosa-5,8,11,14,17-pentaenoic acid ethyl ester]
safety and tolerability of concomitant administration [3]: safe and well-tolerated
serious adverse events [3]: No serious adverse events
